In PubChem BioAssay (NCI):
Values joined by “and” are separate entries in the source; they are usually repeats but may differ in a detail not shown here. Identical values can stand only once.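 Assay format: 96-well plates, 48-hour exposure. The concentration for 50% growth inhibition is given as GI50. The concentration for full growth arrest is given as TGI.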

What was measured:
Assay in all cases: inhibition of tumour cell growth, NCI panel, 48 h
ACHN renal = tested on: ACHN renal
CAKI-1 renal = tested on: CAKI-1 renal
HCC-2998 colon = tested on: HCC-2998 colon
HCT-15 colon = tested on: HCT-15 colon
KM12 colon = tested on: KM12 colon
MDA-N = tested on: MDA-N
MOLT-4 leukemia = tested on: MOLT-4 leukemia
SN12C renal = tested on: SN12C renal
SR leukemia = tested on: SR leukemia
T-47D breast = tested on: T-47D breast

SMILES: COc1cc(S(=O)(=O)Nc2nc(-c3ccc(N=Cc4ccccc4O)cc3)cs2)ccc1Cl
- TGI (ACHN renal): > 100 µM
- TGI (CAKI-1 renal): > 100 µM
- TGI (HCC-2998 colon): > 100 µM
- TGI (HCT-15 colon): > 100 µM
- TGI (KM12 colon): > 100 µM
- TGI (MDA-N): > 100 µM
- TGI (MOLT-4 leukemia): > 100 µM
- TGI (SN12C renal): 77.3 µM
- TGI (SR leukemia): > 100 µM
- TGI (T-47D breast): > 100 µM

SMILES: CC1=C(C(=O)NNC(=O)C[N+](C)(C)C)CC(C(=O)NNC(=O)C[N+](C)(C)C)=C(C)N1
- TGI (ACHN renal): > 100 µM
- TGI (CAKI-1 renal): > 100 µM
- TGI (HCC-2998 colon): > 100 µM
- TGI (HCT-15 colon): > 100 µM
- TGI (KM12 colon): > 100 µM
- TGI (MDA-N): > 100 µM
- TGI (MOLT-4 leukemia): > 100 µM
- TGI (SN12C renal): > 100 µM
- TGI (SR leukemia): > 100 µM
- TGI (T-47D breast): > 100 µM

SMILES: CCc1nc(N)nc(N)c1-c1ccc(N2CCOCC2)c(N=[N+]=[N-])c1
- TGI (ACHN renal): > 100 µM
- TGI (CAKI-1 renal): > 100 µM
- TGI (HCC-2998 colon): > 100 µM
- TGI (HCT-15 colon): > 100 µM
- TGI (KM12 colon): > 100 µM
- TGI (MDA-N): > 100 µM
- TGI (MOLT-4 leukemia): > 100 µM
- TGI (SN12C renal): > 100 µM
- TGI (SR leukemia): > 80.9 µM
- TGI (T-47D breast): > 100 µM

SMILES: CCCCCC(=O)OC[n+]1cccc(-c2c(COC(=O)NC(C)C)c(COC(=O)NC(C)C)c3n2CCC3)c1
- TGI (ACHN renal): > 100 µM
- TGI (CAKI-1 renal): > 53.9 µM
- TGI (HCC-2998 colon): > 100 µM
- TGI (HCT-15 colon): > 100 µM
- TGI (KM12 colon): > 100 µM
- TGI (MDA-N): > 100 µM
- TGI (MOLT-4 leukemia): > 71.1 µM
- TGI (SN12C renal): > 100 µM
- TGI (SR leukemia): > 73.8 µM
- TGI (T-47D breast): > 100 µM

SMILES: O=C1C(Cl)=CC2(C=C1Cl)CCN=c1c(O)c3c(c(O)c12)=NC=N3
- TGI (ACHN renal): > 100 µM
- TGI (CAKI-1 renal): > 100 µM
- TGI (HCC-2998 colon): > 100 µM
- TGI (HCT-15 colon): > 100 µM
- TGI (KM12 colon): > 100 µM
- TGI (MDA-N): 33.6 µM
- TGI (MOLT-4 leukemia): > 100 µM
- TGI (SN12C renal): > 100 µM
- TGI (SR leukemia): 36.5 µM
- TGI (T-47D breast): > 100 µM

SMILES: Cc1ccc2c(=O)cc(-c3cc(C)sc3C)[nH]c2n1
- TGI (ACHN renal): > 100 µM
- TGI (CAKI-1 renal): > 100 µM
- TGI (HCC-2998 colon): 36.3 µM
- TGI (HCT-15 colon): > 100 µM
- TGI (KM12 colon): > 100 µM
- TGI (MDA-N): 1.92 µM
- TGI (MOLT-4 leukemia): > 77.6 µM
- TGI (SN12C renal): > 93.4 µM
- TGI (SR leukemia): > 86.3 µM
- TGI (T-47D breast): > 100 µM

SMILES: Cc1cc2nnn(C3CCCCO3)c2cc1C (stereo unspecified)
- TGI (ACHN renal): > 100 µM
- TGI (CAKI-1 renal): > 100 µM
- TGI (HCC-2998 colon): > 100 µM
- TGI (HCT-15 colon): > 100 µM
- TGI (KM12 colon): > 100 µM
- TGI (MDA-N): > 100 µM
- TGI (MOLT-4 leukemia): > 100 µM
- TGI (SN12C renal): > 100 µM
- TGI (SR leukemia): > 100 µM
- TGI (T-47D breast): > 100 µM

SMILES: Cc1ccc2c(c1C)CC1(Cc3ccc(C)c(C)c3C1=O)C2=O (stereo unspecified)
- TGI (ACHN renal): > 100 µM
- TGI (CAKI-1 renal): > 100 µM
- TGI (HCC-2998 colon): > 100 µM
- TGI (HCT-15 colon): > 100 µM
- TGI (KM12 colon): > 100 µM
- TGI (MDA-N): > 100 µM
- TGI (MOLT-4 leukemia): > 100 µM
- TGI (SN12C renal): > 100 µM
- TGI (SR leukemia): > 100 µM
- TGI (T-47D breast): > 100 µM

SMILES: O=C(/C=C/c1ccccc1)CCN1CCCCC1
- TGI (ACHN renal): > 100 µM
- TGI (CAKI-1 renal): > 100 µM
- TGI (HCC-2998 colon): > 100 µM
- TGI (HCT-15 colon): > 100 µM
- TGI (KM12 colon): > 100 µM
- TGI (MDA-N): 60.1 µM
- TGI (MOLT-4 leukemia): 63.1 µM
- TGI (SN12C renal): 48.8 µM
- TGI (SR leukemia): > 100 µM
- TGI (T-47D breast): > 100 µM

SMILES: NC(CCC(=O)O)C(=O)NC(Cc1ccc(N(CCCl)CCCl)cc1)C(=O)O (stereo unspecified)
- TGI (ACHN renal): > 100 µM
- TGI (CAKI-1 renal): > 100 µM
- TGI (HCC-2998 colon): > 100 µM
- TGI (HCT-15 colon): > 100 µM
- TGI (KM12 colon): > 100 µM
- TGI (MDA-N): > 100 µM
- TGI (MOLT-4 leukemia): > 100 µM
- TGI (SN12C renal): > 100 µM
- GI50 (SR leukemia): > 100 µM and 28.5 µM
- TGI (SR leukemia): > 100 µM
- TGI (T-47D breast): > 100 µM

SMILES: S=c1[nH]nc(Cn2c3ccc(Br)cc3c3nc4ccccc4nc32)o1
- TGI (ACHN renal): > 100 µM
- TGI (CAKI-1 renal): > 100 µM
- TGI (HCC-2998 colon): > 100 µM
- TGI (HCT-15 colon): > 100 µM
- TGI (KM12 colon): > 100 µM
- TGI (MDA-N): > 100 µM
- TGI (MOLT-4 leukemia): 60.5 µM
- TGI (SN12C renal): > 100 µM
- TGI (SR leukemia): > 100 µM
- TGI (T-47D breast): > 100 µM

SMILES: CCN(C(=O)N[C@@H](CC(C)C)C(=O)NCC(=O)OC)c1ccccc1
- TGI (ACHN renal): > 100 µM
- TGI (CAKI-1 renal): > 100 µM
- TGI (HCC-2998 colon): > 100 µM
- TGI (HCT-15 colon): > 100 µM
- TGI (KM12 colon): > 100 µM
- TGI (MDA-N): > 100 µM
- TGI (MOLT-4 leukemia): > 100 µM
- TGI (SN12C renal): > 100 µM
- TGI (SR leukemia): > 100 µM
- TGI (T-47D breast): > 100 µM

SMILES: O=C(Nc1ccc(Cl)cc1Cl)C1C(=O)OC2(CCCCC2)OC1=O
- TGI (ACHN renal): 33.9 µM
- TGI (CAKI-1 renal): 22.5 µM
- TGI (HCC-2998 colon): 29.3 µM
- TGI (HCT-15 colon): 29.4 µM
- TGI (KM12 colon): 28.4 µM
- TGI (MDA-N): 61.2 µM
- TGI (MOLT-4 leukemia): 26.9 µM
- TGI (SN12C renal): 49.4 µM
- TGI (SR leukemia): 64.1 µM
- TGI (T-47D breast): 62.2 µM

SMILES: N/C(CCSCCSCC/C(N)=N\O)=N\O
- TGI (ACHN renal): > 100 µM
- TGI (CAKI-1 renal): > 100 µM
- TGI (HCC-2998 colon): > 100 µM
- TGI (HCT-15 colon): > 100 µM
- TGI (KM12 colon): > 100 µM
- TGI (MDA-N): > 100 µM
- TGI (MOLT-4 leukemia): > 100 µM
- TGI (SN12C renal): > 100 µM
- TGI (SR leukemia): > 100 µM
- TGI (T-47D breast): > 100 µM

SMILES: CC[C@@H]1CC[C@@H]2[C@H](CC[C@]3(C)[C@@H](O[N+](=O)[O-])CC[C@@H]23)[C@H]1C(C)=O
- TGI (ACHN renal): > 100 µM
- TGI (CAKI-1 renal): > 100 µM
- TGI (HCC-2998 colon): > 100 µM
- TGI (HCT-15 colon): > 100 µM
- TGI (KM12 colon): 80.7 µM
- TGI (MDA-N): > 100 µM
- TGI (MOLT-4 leukemia): > 100 µM
- TGI (SN12C renal): > 100 µM
- TGI (SR leukemia): > 100 µM
- TGI (T-47D breast): 96.4 µM

SMILES: O=C1CSC(c2cc3cc(Br)ccc3nc2Cl)N1c1ccc(Cl)cc1 (stereo unspecified)
- TGI (ACHN renal): > 100 µM
- TGI (CAKI-1 renal): > 100 µM
- TGI (HCC-2998 colon): 41.7 µM
- TGI (HCT-15 colon): 88.8 µM
- TGI (KM12 colon): 47.6 µM
- TGI (MDA-N): > 100 µM
- TGI (MOLT-4 leukemia): 47.9 µM
- TGI (SN12C renal): 48.7 µM
- TGI (SR leukemia): 44.8 µM
- TGI (T-47D breast): > 100 µM
